Laboratory results published in patent publication US20210149304A1, “PHOTOSENSITIVE RESIN COMPOSITION, CURED FILM, ELEMENT COMPRISING CURED FILM, ORGANIC EL DISPLAY DEVICE COMPRISING CURED FILM, METHOD FOR PRODUCING CURED FILM, AND METHOD FOR PRODUCING ORGANIC EL DISPLAY DEVICE” (TORAY INDUSTRIES, INC., priority 2017, published 2021).

Assay: physchem
Conditions: not given
Protocol: The acid dissociation constant (pKa) is a logarithmic value of the inverse number of the acid dissociation constant pKa in a dilute aqueous solution at 25° C. In cases of multistep dissociation, the dissociation constant in the first step (that is, pKa1) is employed.
In the compound (E2) having a phenolic hydroxyl group indicating an acid dissociation constant pKa of 6.0 to 9.5 at 25° C., the acid dissociation constant (pKa) is a logarithmic value of the inverse number of the acid dissociation constant in a dilute aqueous solution at 25° C. In cases of multistep dissociation, the dissociation constant in the first step (that is, pKa1) is employed. […] The acid dissociation constant pKa is preferably not less than 6.3, more preferably not less than 6.6, still more preferably not less than 7.0.

| pKa | pKa (acid dissociation constant) | Compound |
| --- | --- | --- |
| 7.7 | – | O=C(c1ccc(O)cc1)c1ccc(O)cc1 [E(iii), 4,4′-dihydroxybenzophenone] |
| 7.3 | – | O=C(c1ccccc1O)c1ccccc1O [E(iv), 2,2′-dihydroxybenzophenone] |
| 8.5 | – | Oc1ccc(C(F)(F)F)cc1 [E(v), 4-(trifluoromethyl)phenol] |

Second part, the compound before the results:

| Compound | pKa | pKa (acid dissociation constant) |
| --- | --- | --- |
| Cc1cc(O)c(C(C)(C)C)cc1C(C)CC(c1cc(C(C)(C)C)c(O)cc1C)c1cc(C(C)(C)C)c(O)cc1C (stereo not drawn) [AO-30, 1,1,3-tris(2-methyl-4-hydroxy-5-tert-butylphenyl)butane] | 11.6 | – |
| Cc1cc(CCC(=O)OCC(C)(C)C2OCC3(CO2)COC(C(C)(C)COC(=O)CCc2cc(C)c(O)c(C(C)(C)C)c2)OC3)cc(C(C)(C)C)c1O (stereo not drawn) [AO-80, 3,9-bis[1,1-dimethyl-2-[(3-tert-butyl-4-hydroxy-5-methylphenyl)propionyloxy]ethyl]-2,4,8,10-tetraoxaspiro[5.5]undecane] | 12 | – |
| Oc1ccc(C(c2ccc(O)cc2)(C(F)(F)F)C(F)(F)F)cc1 [E(i), bisphenol AF] | 8.7 | 8.7 |
| CC(c1ccc(O)cc1)(c1ccc(O)cc1)c1ccc(O)cc1 [E(vi), 1,1,1-tris(4-hydroxyphenyl)ethane] | 10 | – |

Same assay, conditions: at 25° C., dilute aqueous solution, first step pKa1

| Compound | pKa (acid dissociation constant) |
| --- | --- |
| O=S(=O)(c1ccc(O)cc1)c1ccc(O)cc1 [E(ii), bisphenol S] | 7.6 |
